Source: paper PMC7253423, “Quassinoid analogs with enhanced efficacy for treatment of hematologic malignancies target the PI3Kγ isoform” (Communications Biology, 2020)
pIC50: −log10 of the molar value. Values joined by “and” are separate entries in the source; they are usually repeats but may differ in a detail not shown here. Equal entries are not always repeated.

What was measured:
Raji cells [1] = assay: Western blot of PI3K/AKT signaling proteins; assay type: cell-based, human; details: Raji, 0, 50 nM, 100 nM; 0, 12 h, 24 h
Description: Western blot analyses were performed as previously described. Briefly, total cell lysates were separated by SDS-PAGE gel and transferred to nitrocellulose membrane. The membranes were blocked with 5% non-fat milk, probed with specific antibodies, and visualized using the Odyssey scanner (LiCor Inc., Lincoln, NE).

[2] = test system: hematologic malignancies derived cell lines; assay: Cell viability assay, panel of hematologic malignancy derived cell lines; assay type: cell-based, human; details: 100 nM, 72 h, lymphoma, leukemia and multiple myeloma cell lines (13 cell lines for analogs)
Description: 5000 cells as indicated were cultured in 96-well plate with 100 μl of media. On the next day, Brusatol or associated analogs were added once to the cells without media change. After treatment, the cells were incubated with 100 μl buffer for 10 min at room temperature following the instructions of CellTiter-Glo kit (Promega, Madison, WI). Luminescence was detected using a multi-mode reader Cytation 5 (BioTek, Winooski, VT). […] Two independent experiments done in duplicates were performed.

[3] = Cytotoxicity, cell viability assay in normal cells; assay type: cell-based, human; details: human, PBMC, fraction of 0 μM control, read-out: relative cell viability (Fig 6a), replicates
PBMC = assay: Cytotoxicity, cell viability assay in normal cells; assay type: cell-based, human; details: Fig 5c
MOLM14 cells = assay: Cell viability assay (CellTiter-Glo luminescence); assay type: cell-based; details: Homo sapiens
Description: (§1) 5000 cells as indicated were cultured in 96-well plate with 100 μl of media. […] After treatment, the cells were incubated with 100 μl buffer for 10 min at room temperature following the instructions of CellTiter-Glo kit (Promega, Madison, WI). Luminescence was detected using a multi-mode reader Cytation 5 (BioTek, Winooski, VT). […] Two independent experiments done in duplicates were performed.

Raji cells [4] = assay: Cell viability assay (CellTiter-Glo luminescence); assay type: cell-based, human; details: Homo sapiens
Description: as §1

SU-DHL-4 cells = assay: Cell viability assay (CellTiter-Glo luminescence); assay type: cell-based, human; details: Homo sapiens, SU-DHL-4, 144 h
Description: as §1

[5] = In vivo toxicity test, survival rate; design: species or system NOD/SCID mice; details: for survival event status per mouse (Fig 6i; 1 = event/death, 0 = censored): 10mg/kg
Description: The survival rate was recorded to monitor the tolerance of the compounds in these mice.

MOLM14 xenografts = assay: In vivo tumorigenic assay using xenografts, tumor size; design: species or system NOD/SCID mice; details: for tumor size (Fig 5d&5e), individual mice: MOLM14 xenograft
Description: Six-week-old male NOD.CB17-Prkdc^scid/J (NOD/SCID) mice (Jackson Labs, Bar Harbor, ME, USA) were used as the human-in-mouse xeno-transplantation model. MOLM14 cells (1 × 10^7 cells) were injected into the subcutaneous space on the left flank of the mice. […] Body weight and tumor size were monitored before every injection. After treatment for 2 weeks, the mice were euthanized by CO2 inhalation and the tumors were carefully excised. The tumor volume (mm^3) was measured and calculated using the formula (a × b × b)/2 (a, the largest diameter of two measurements; b, the smallest diameter of two measurements).

COC(=O)C12OCC34C(CC5C(C)=C(OC(=O)CNC(=O)OC(C)(C)C)C(=O)CC5(C)C3C(O)C1O)OC(=O)C(OC(=O)C=C(C)C)C24 (stereo not shown) [#15]
suppression of AKT1, GSK3, and mTOR levels (Raji cells [1]): largely similar to Brusatol | inhibition of cell viability in panel of cell lines [2]: significantly inhibit | viability at 0.000244141 μM ([3]; Con. 0.000244141 μM): 104% | viability at 0.00390625 μM ([3]; Con. 0.00390625 μM): 91.7% | viability at 0.015625 μM ([3]; Con. 0.015625 μM): 76.5% | viability at 0.0625 μM ([3]; Con. 0.0625 μM): 74.9% | viability at 1 μM ([3]; Con. 1 μM): 61.2% | Cell viability, raw luminescence reading (PBMC; Con. 0.01 μM): 24385 and 24514 | Cell viability, raw luminescence reading (PBMC; Con. 0.039 μM): 25686 and 22234 | Cell viability, raw luminescence reading (PBMC; Con. 0.156 μM): 6585 and 8242 | Cell viability, raw luminescence reading (PBMC; Con. 0.625 μM): 7188 and 7989 | Cell viability, raw luminescence reading (PBMC; Con. 10 μM): 9130 and 9273 | viability at 0.00244141 µM (MOLM14 cells; MOLM-14, read-out: relative cell viability (Fig 6e), replicates, MOLM14, Con. 0.00244141 μM, fraction of 0 μM control): 71.1% | viability at 0.0390625 µM (MOLM14 cells; MOLM-14, read-out: relative cell viability (Fig 6e), replicates, MOLM14, Con. 0.0390625 μM, fraction of 0 μM control): 15% | viability at 0.15625 µM (MOLM14 cells; MOLM-14, read-out: relative cell viability (Fig 6e), replicates, MOLM14, Con. 0.15625 μM, fraction of 0 μM control): 5.59% | viability at 0.625 µM (MOLM14 cells; MOLM-14, read-out: relative cell viability (Fig 6e), replicates, MOLM14, Con. 0.625 μM, fraction of 0 μM control): 3.26% | viability at 10 µM (MOLM14 cells; MOLM-14, read-out: relative cell viability (Fig 6e), replicates, MOLM14, Con. 10 μM, fraction of 0 μM control): 3.59% | pIC50 (Raji cells [4]; 72 h): 7.03 | viability at 0.00244141 µM (Raji cells [4]; read-out: relative cell viability (Fig 6f), replicates, Raji, Con. 0.00244141 μM, fraction of 0 μM control): 120% | viability at 0.0390625 µM (Raji cells [4]; read-out: relative cell viability (Fig 6f), replicates, Raji, Con. 0.0390625 μM, fraction of 0 μM control): 63.6% | viability at 0.15625 µM (Raji cells [4]; read-out: relative cell viability (Fig 6f), replicates, Raji, Con. 0.15625 μM, fraction of 0 μM control): 25.8% | viability at 0.625 µM (Raji cells [4]; read-out: relative cell viability (Fig 6f), replicates, Raji, Con. 0.625 μM, fraction of 0 μM control): 10.3% | viability at 10 µM (Raji cells [4]; read-out: relative cell viability (Fig 6f), replicates, Raji, Con. 10 μM, fraction of 0 μM control): 5.59% | viability at 0.00244141 µM (SU-DHL-4 cells; read-out: relative cell viability (Fig 6d), replicates, SU-DHL-4, Con. 0.00244141 μM, fraction of 0 μM control): 90.7% | viability at 0.0390625 µM (SU-DHL-4 cells; read-out: relative cell viability (Fig 6d), replicates, SU-DHL-4, Con. 0.0390625 μM, fraction of 0 μM control): 35.2% | viability at 0.15625 µM (SU-DHL-4 cells; read-out: relative cell viability (Fig 6d), replicates, SU-DHL-4, Con. 0.15625 μM, fraction of 0 μM control): 13.9% | viability at 0.625 µM (SU-DHL-4 cells; read-out: relative cell viability (Fig 6d), replicates, SU-DHL-4, Con. 0.625 μM, fraction of 0 μM control): 7.7% | viability at 10 µM (SU-DHL-4 cells; read-out: relative cell viability (Fig 6d), replicates, SU-DHL-4, Con. 10 μM, fraction of 0 μM control): 4.89% | toxicity in vivo (survival) ([5]; 10 mg/kg intraperitoneally every other day, monitored 24 days, 4 mice per group): obviously lethal for the majority of mice within the first 4 days | survival event status per mouse (Fig 6i; 1 = event/death, 0 = censored) ([5]; Days Post-treatment 2): 1 | survival event status per mouse (Fig 6i; 1 = event/death, 0 = censored) ([5]; Days Post-treatment 3): 1 | survival event status per mouse (Fig 6i; 1 = event/death, 0 = censored) ([5]; Days Post-treatment 4): 1 | tumor size, inhibitory response (MOLM14 xenografts; 2 mg/kg intraperitoneally three times per week, 2 weeks, vs PBS control): strong and rapid inhibitory response | tumor size (Fig 5d&5e), individual mice (MOLM14 xenografts; 0d): 78.7304 and 93.4671 and 63.7324 and 75.8678 and 67.9005 and 67.4325 | tumor size (Fig 5d&5e), individual mice (MOLM14 xenografts; 2d): 74.0736 and 114.773 and 91.676 and 153.055 and 77.875 and 106.489 | tumor size (Fig 5d&5e), individual mice (MOLM14 xenografts; 4d): 75.6994 and 102.99 and 96.7244 and 124.841 and 62.8883 and 83.9808 | tumor size (Fig 5d&5e), individual mice (MOLM14 xenografts; 6d): 103.463 and 91.5117 and 52.853 and 252.562 and 146.711 and 106.359 | tumor size (Fig 5d&5e), individual mice (MOLM14 xenografts; 8d): 91.2302 and 210.386 and 191.93 and 161.391 and 92.482 and 87.983 | tumor size (Fig 5d&5e), individual mice (MOLM14 xenografts; 10d): 119.98 and 398.721 and 249.328 and 242.913 and 135.818 and 159.498 | tumor size (Fig 5d&5e), individual mice (MOLM14 xenografts; 12d): 236.553 and 558.264 and 472.199 and 496.746 and 222.458 and 242.483
